Consider eleven molecules from PMC2874393, “Comparison of zwitterionic N-alkylaminomethanesulfonic acids to related compounds in the Good buffer series” (Beilstein Journal of Organic Chemistry, 2010).

Like-named read-outs stand apart in the source and are kept apart here. Marks after values point to notes of the source that are not given here.

The conditions of series [1]: cited from earlier work; for pKa (propyl analog) / pKa (ethyl analog): ref [1],[5],[7]; for pKa: in water, ref [4].
Series [2] can be described thus: pKa of ammonium ion proton dissociation by aqueous solution titrimetry. The class given is physicochemical. How it is done:
We then performed titrations to determine the pKa values of proton dissociation from the ammonium ion (1a and equivalent). The pKa values determined for these compounds, along with those of the analogous aminoethanesulfonate and aminopropanesulfonate buffer pKa values for comparison is presented in Table 1.
Acid dissociation constants for the ammonium ions were determined by aqueous solution titrimetry (min. 5 repetitions from low to high, then high to low pH) using standardized NaOH and HCl solutions.

Series [3] concerns E. coli strain HB101. The series can be described thus: culture growth with buffer compounds, optical density at 600 nm. The conditions noted are these: for Final OD600: E. coli HB101, pH 7.2, 37 °C, 18 h, 3 trials; for culture growth support: all concentrations tested (10, 20, 50 mM); for toxicity or culture growth inhibition: higher concentrations of buffer. It counts as cell-based. How it is done: In order to assess the potential utility of these compounds as biological buffers, we conducted an initial experiment with different concentrations of the new compounds with E. coli strain HB101 at pH 7.2 and 37 °C for 18 h. Culture growth was estimated by optical density measurement at 600 nm, and the results are summarized in Table 2 (in which each value is the result of 3 separate trials, with an overall standard error for all final measurements of 0.025).

Series [4] is described as follows: aqueous solubility (observation). The conditions noted are these: at low pH / pH ≤ pKa. It counts as physicochemical. The source says: All of the compounds except 2 show evidence of a systematic decrease in pKa as the number of carbons between the amine and sulfonic acid functional groups decreases.
Setting [5] is: ammonium ion, aqueous titration.
Setting [6] is: 2nd (ammonium) dissociation constant value.

`O=S(=O)(O)CCCN1CCN(CCO)CC1` [EPPS, 4-(2-hydroxyethyl)-1-piperazinepropanesulfonic acid]: the “pKa (propyl analog)” value in series [1] is listed as 8.0.

`O=S(=O)(O)CN1CCN(CCO)CC1` [compound 2, N-(2-hydroxyethyl)piperazine-N′-methanesulfonic acid]: the pKa in series [2] (0.25M solution at 20 °C) turned out to be 7.4; in series [2] (setting [5]), 7.9. The “Final OD600” value in series [3] (10 mM buffer) is listed as 1.16; in series [3] (20 mM buffer), 1.08; in series [3] (50 mM buffer), 0.66. Besides, the culture growth support entry in series [3] is “supported culture growth at all concentrations tested”. Further, the “toxicity or culture growth inhibition” value in series [3] is listed as “possible toxicity or other culture growth inhibition”.

In the case of `O=S(=O)(O)CCN1CCN(CCS(=O)(=O)O)CC1` [PIPES, reference compound], in series [4], the aqueous solubility entry was “limited aqueous solubility”. In addition, the “pKa (ethyl analog)” value in series [1] (setting [6]) was 6.8^b.

For `O=S(=O)(O)CNC1CCCCC1` [compound 4, Cyclohexylaminomethanesulfonic acid], the pKa is 7.8 in series [2] (0.3 M solution at 20 °C) and approximately 7 in series [2] (setting [5]). Besides, the aqueous solubility result in series [4] is reported as “limited solubility in aqueous solution”.

Turning to `O=S(=O)(O)CCN1CCN(CCO)CC1` [HEPES], the “pKa (ethyl analog)” value in series [1] is on record as 7.5.

`O=S(=O)(O)CCNC1CCCCC1` [CHES, 2-(cyclohexylamino)ethanesulfonic acid]: the “pKa (ethyl analog)” value in series [1] was 9.3.

Take `O=S(=O)(O)CN1CCOCC1` [compound 1, N-Morpholinomethanesulfonic acid]: the pKa in series [2] (0.3 M solution at 20 °C) came out at 3.8; in series [2] (setting [5]), 3.9. Further, the figures for the “Final OD600” value in series [3] (10 mM buffer), in series [3] (20 mM buffer) and in series [3] (50 mM buffer) were 1.16, 1.22 and 1.18, respectively. The culture growth support entry in series [3] is “supported culture growth at all concentrations tested”.

Turning to `NS(=O)(=O)O` [sulfamic acid], the pKa in series [1] is 1.01.

In the case of `NCS(=O)(=O)O` [aminomethanesulfonic acid], the pKa in series [1] is 5.75.

Regarding `O=S(=O)(O)CCCN1CCN(CCCS(=O)(=O)O)CC1` [PIPPS, piperazine-N,N′-bis(3-propanesulfonic acid], the “pKa (propyl analog)” value in series [1] (setting [6]) is 8.0^b.

For the molecule `O=S(=O)(O)CN1CCN(CS(=O)(=O)O)CC1` [compound 3, Piperazine-N,N′-bis(methanesulfonic acid)], the pKa in series [2] (0.3 M solution at 20 °C) was determined as 4.8; in series [2] (2nd (ammonium) dissociation constant value, aqueous titration), 4.9. For the same molecule, the “Final OD600” value in series [3] (10 mM buffer) is 1.23; in series [3] (20 mM buffer), 1.21; in series [3] (50 mM buffer), 1.08. Also, the culture growth support result in series [3] is “supported culture growth at all concentrations tested”. Besides, the “toxicity or culture growth inhibition” value in series [3] is given as “possible toxicity or other culture growth inhibition”. For the same molecule, in series [4], the aqueous solubility result is reported as “does not demonstrate the limited aqueous solubility”.
